The values that follow are results of earlier work, collected in patent EP2566462B1, “IMMEDIATE RELEASE FORMULATIONS AND DOSAGE FORMS OF GAMMA-HYDROXYBUTYRATE” (Jazz Pharmaceuticals Inc., priority 2010, dated 2011).

For data set [1] the following is noted: in man, given orally.
Data set [2] relates to patients with hyperkinetic movement disorders including ethanol responsive myoclonus and essential tremor. As to conditions: open label, five patients.

Regarding `O=C([O-])CCCO.[Na+]` [sodium oxybate, Sodium gamma-hydroxybutyrate], the plasma half-life entry in data set [1] was “about 45 minutes”. Also, in data set [2], the “blinded ratings of ethanol responsive myoclonus and tremor” value is recorded as “dose-dependent improvements”; the tolerability entry is reported as “tolerated at doses that provided clinical benefit”.
